Reference: patent publication US10233180B2, “Substituted nitrogen-containing heterocyclic derivatives, pharmaceutical compositions comprising the same and applications of antitumor thereof” (ZHEJIANG UNIVERSITY, priority 2014, dated 2019)

How the values were obtained:
[1] = molecular target: T1, Akt1 (Homo sapiens, UniProt P31749); assay: AKT1/PKBα KinEASE FP Fluorescein Green Assay (fluorescence polarization kinase kit); format: biochemical; conditions: 1 h reaction, read-out: Inhibitory activities against Akt1 (IC50)
T1 construct: purchased 32-021
Method in brief: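 FP competition kinase assay: compounds (50 μM stock) with STK Substrate 3 and ATP, 1 h reaction at room temperature; stopped with stop/antibody mix, 4 h at room temperature, then polarization read. Inhibition derived from polarization values; IC50 calculated; triplicate wells.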

[2] = system: Human ovarian cancer cell strain OVCAR-8; assay: MTT assay, inhibition of tumor cell growth in vitro, 72 h; format: cell-based; conditions: Homo sapiens, OVCAR-8, MTT, read-out: Antitumor proliferative activities of tumor cell (IC50, μM) OVCAR-8
Method in brief: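 OVCAR8 cells in RPMI 1640 plus FBS were seeded at 4000 cells/well and exposed for 72 h at 37 °C to compound at 50, 10, 2, 0.4 and 0.08 μM final, with 1% DMSO as blank. Inhibition was calculated from OD relative to control, and IC50 was derived by the Bliss method.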

[3] = system: human colon cancer cell strain HCT-116; assay: as above; format: cell-based; conditions: Homo sapiens, HCT-116, MTT, read-out: Antitumor proliferative activities of tumor cell (IC50, μM) HCT-116 (converted)
Method in brief: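 Cells in RPMI 1640 with FBS, 4000 cells/well, exposed 72 h at 37 °C, 5% CO2 to final 50, 10, 2, 0.4 and 0.08 μM; 1% DMSO blank. MTT OD gives % inhibition versus control; IC50 derived by Bliss method.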

T1 sequence (P31749 whole entry): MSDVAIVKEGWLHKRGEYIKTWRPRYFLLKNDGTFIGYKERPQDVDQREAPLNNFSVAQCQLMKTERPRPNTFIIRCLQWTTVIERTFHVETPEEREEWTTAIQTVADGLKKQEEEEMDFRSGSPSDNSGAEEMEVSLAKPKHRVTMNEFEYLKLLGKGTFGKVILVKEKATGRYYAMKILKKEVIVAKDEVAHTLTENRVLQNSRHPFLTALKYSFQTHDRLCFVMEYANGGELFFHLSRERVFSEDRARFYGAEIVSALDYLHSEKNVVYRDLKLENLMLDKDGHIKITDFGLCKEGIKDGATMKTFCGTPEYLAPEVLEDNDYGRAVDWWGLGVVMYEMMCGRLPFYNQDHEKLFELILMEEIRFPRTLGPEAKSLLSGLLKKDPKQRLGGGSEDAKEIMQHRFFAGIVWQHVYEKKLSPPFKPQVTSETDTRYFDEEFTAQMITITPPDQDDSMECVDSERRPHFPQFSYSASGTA

## CCc1c(-c2c(Cl)cnn2C)cc(C(=O)N[C@H]2CNCC[C@@H]2C2CCC(F)C2)n1C (stereo partly drawn) [Compound 15, 5-ethyl-1-methyl-4-(4-chloro-1-methyl-1H-pyrazol-5-yl)-N-(3,4-trans-4-(3-fluorocyclopentanyl)piperidin-3-yl)-1H-pyrrole-2-formamide]
[1]
  IC50: 0.052 µM
[2]
  IC50: 1.26 µM
[3]
  IC50: 2.04 µM

## Cc1nc(C(=O)N[C@H]2CNCC[C@@H]2c2ccc(F)c(F)c2)ncc1-c1c(Cl)cnn1C (racemic) [Compound 52, 4-methyl-5-(4-chloro-1-methyl-1H-pyrazol-5-yl)-N-(3,4-trans-4-(3,4-difluorophenyl)piperidin-3-yl)pyrimidine-2-formamide]
[1]
  IC50: 0.072 µM
[2]
  IC50: 1.06 µM
[3]
  IC50: 2.05 µM

## Cn1ncc(Cl)c1-c1ccc(C(=O)N[C@@H]2CNC(CCO)C[C@H]2c2ccc(F)c(F)c2)cc1 (stereo partly drawn) [Compound 100]
[1]
  IC50: 0.009 µM
[2]
  IC50: 1.12 µM
[3]
  IC50: 0.42 µM

## Cn1ncc(Cl)c1-c1cc(C(=O)N[C@@H]2CNC(CC(=O)NC3CCC3)C[C@H]2c2ccc(Cl)c(Cl)c2)oc1Cl (stereo partly drawn) [Compound 120, 5-chloro-4-(4-chloro-1-methyl-1H-pyrazol-5-yl)-N-((3S,4S)-6-(2-(cyclobutylamido)-2-oxoethyl)-4-(3,4-dichlorophenyl)piperidin-3-yl)furan-2-formamide]
[1]
  IC50: 0.003 µM
[2]
  IC50: 0.45 µM
[3]
  IC50: 0.44 µM

## Cn1ncc(Cl)c1-c1ccc(C(=O)N[C@@H]2CNCC[C@H]2c2ccc(Cl)c(C(F)(F)F)c2)c(F)c1 [Compound 84, 4-(4-chloro-1-methyl-1H-pyrazol-5-yl)-N-((3S,4S)-4-(4-chloro-3-(trifluoromethyl)phenyl)piperidin-3-yl)-2-fluorobenzamide]
[1]
  IC50: 0.009 µM
[2]
  IC50: 4.44 µM
[3]
  IC50: 2.1 µM

## Cn1ncc(-c2ccncc2)c1-c1ccc(C(=O)N[C@@H]2CNCC[C@H]2c2cccc(F)c2)s1 [Compound 140, N-((3S, 4S)-4-(3-fluorophenyl)piperidin-3-yl)-5-(1-methyl-4-(pyridinyl-4-yl)-1H-pyrazol-5-yl)thiophene-2-formamide]
[1]
  IC50: 0.001 µM
[2]
  IC50: 6.67 µM
[3]
  IC50: 1.1 µM

## Cn1ncc(Br)c1-c1ccc(C(=O)N[C@@H]2CNCC[C@H]2c2cc(F)c(F)c(F)c2)cc1 [Compound 81, 4-(4-bromo-1-methyl-1H-pyrazol-5-yl)-N-((3S,4S)-4-(3,4,5-trifluorophenyl)piperidin-3-yl)benzamide]
[1]
  IC50: 0.018 µM
[2]
  IC50: 3.57 µM
[3]
  IC50: 1.1 µM

## CCc1cnn(C)c1-c1cc(F)c(C(=O)N[C@@H]2CNCC[C@H]2c2ccc(Cl)c(C(F)(F)F)c2)c(F)c1 [Compound 75, N-((3S,4S)-4-(4-chloro-3-(trifluoromethyl)phenyl)piperidin-3-yl)-4-(4-ethyl-1-methyl-1H-pyrazol-5-yl)-2,6-difluorobenzamide]
[1]
  IC50: 0.013 µM
[2]
  IC50: 2.19 µM
[3]
  IC50: 0.99 µM

## Cn1ncc(Cl)c1-c1cc(C(=O)N[C@@H]2CNC(CCO)C[C@H]2c2ccc(F)c(F)c2)oc1Cl (stereo partly drawn) [Compound 129, 5-chloro-4-(4-chloro-1-methyl-1H-pyrazol-5-yl)-N-((3S,4S)-4-(3,4-difluorophenyl)-6-(2-hydroxyethyl)piperidin-3-yl)furan-2-formamide]
[1]
  IC50: 0.0004 µM
[2]
  IC50: 0.51 µM
[3]
  IC50: 0.78 µM

## Cn1ncc(Cl)c1-c1ccc(C(=O)N[C@@H]2CNCC[C@H]2c2ccc(Cl)c(C(F)(F)F)c2)nc1 [Compound 96, 5-(4-chloro-1-methyl-1H-pyrazol-5-yl)-N-((3S,4S)-4-(4-chloro-3-(trifluoromethyl)phenyl)piperidin-3-yl)picolinamide]
[1]
  IC50: 0.009 µM
[2]
  IC50: 2.41 µM
[3]
  IC50: 0.78 µM

## Cn1ncc(Br)c1-c1coc(C(=O)N[C@H]2CNC[C@@H]2c2ccc(F)c(F)c2)c1 (racemic) [Compound 68, 4-(4-bromo-1-methyl-1H-pyrazol-5-yl)-N-(3,4-trans-4-(3,4-difluorophenyl)pyrrolidin-3-yl)furan-2-formamide]
[1]
  IC50: 0.679 µM
[2]
  IC50: 4.19 µM
[3]
  IC50: 2.84 µM

## C[C@H]1CNC[C@@H](NC(=O)c2ccc(-c3c(Cl)cnn3C)s2)[C@@H]1c1cccc(F)c1 [Compound 150, 5-(4-chloro-1-methyl-1H-pyrazol-5-yl)-N-((3S, 4S, 5R)-4-(3-fluorophenyl)-5-methylpiperidin-3-yl)thiophene-2-formamide]
[1]
  IC50: 0.003 µM
[2]
  IC50: 1.19 µM
[3]
  IC50: 4.43 µM

## Cc1cnn(C)c1-c1cnc(C(=O)N[C@H]2CNCC[C@@H]2c2ccc(F)c(F)c2)cc1F [Compound 61, 4-fluoro-5-(1,4-dimethyl-1H-pyrazol-5-yl)-N-((3R,4R)-4-(3,4-difluorophenyl)piperidin-3-yl)pyridinyl-2-formamide]
[1]
  IC50: 0.188 µM
[2]
  IC50: 8.44 µM
[3]
  IC50: 3.85 µM

## Cn1ncc(Cl)c1-c1ccc(C(=O)N[C@@H]2CNCC[C@H]2c2cccc(F)c2)cc1Cl [Compound 86, 3-chloro-4-(4-chloro-1-methyl-1H-pyrazol-5-yl)-N-((3S,4S)-4-(3-fluorophenyl)piperidin-3-yl)benzamide]
[1]
  IC50: 0.014 µM
[2]
  IC50: 1.26 µM
[3]
  IC50: 1.47 µM

## Cn1ncc(Cl)c1-c1ccc(C(=O)N[C@@H]2CNCC[C@H]2c2cccc(F)c2)cc1OC(F)(F)F [Compound 85, 4-(4-chloro-1-methyl-1H-pyrazol-5-yl)-N-((3S,4S)-4-(3-fluorophenyl)piperidin-3-yl)-3-(trifluoromethoxy)benzamide]
[1]
  IC50: 0.021 µM
[2]
  IC50: 3.07 µM
[3]
  IC50: 5.56 µM

## Cn1ncc(Cl)c1-c1ccc(C(=O)N[C@@H]2CNCC[C@H]2c2ccc(F)c(F)c2)c(-c2csc(Cl)c2)c1 [Compound 90, 4-(4-chloro-1-methyl-1H-pyrazol-5-yl)-2-(5-chlorothiophene-3-yl)-N-((3S, 4S)-4-(3,4-difluorophenyl)piperidin-3-yl)benzamide]
[1]
  IC50: 0.014 µM
[2]
  IC50: 1.83 µM
[3]
  IC50: 0.69 µM

## Cn1ncc(Cl)c1-c1cc(C(=O)N[C@@H]2CNC(CCN3CCCC3)C[C@H]2c2ccc(Cl)c(Cl)c2)oc1Cl (stereo partly drawn) [Compound 110, 5-chloro-4-(4-chloro-1-methyl-1H-pyrazol-5-yl)-N-((3S,4S)-4-(3,4-dichlorophenyl)-6-(2-(pyrrolidin-1-yl)ethyl)piperidin-3-yl)furan-2-formamide]
[1]
  IC50: 0.011 µM
[2]
  IC50: 1.21 µM
[3]
  IC50: 0.89 µM

## Cn1ncc(Cl)c1-c1csc(C(=O)N[C@H]2CNCC[C@@H]2c2ccc(F)c(F)c2)c1 (racemic) [Compound 36, 4-(4-chloro-1-methyl-1H-pyrazol-5-yl)-N-(3,4-trans-4-(3,4-difluorophenyl)piperidin-3-yl)thiophene-2-formamide]
[1]
  IC50: 0.105 µM
[2]
  IC50: 3.38 µM
[3]
  IC50: 3.28 µM

## Cc1occc1-c1cc(-c2c(Cl)cnn2C)ccc1C(=O)N[C@@H]1CNCC[C@H]1c1cccc(F)c1 [Compound 88, 4-(4-chloro-1-methyl-1H-pyrazol-5-yl)-N-((3S,4S)-4-(3-fluorophenyl)piperidin-3-yl)-2-(2-methylfuran-3-yl)benzamide]
[1]
  IC50: 0.008 µM
[2]
  IC50: 1.07 µM
[3]
  IC50: 4.21 µM

## Cn1ncc(Br)c1-c1csc(C(=O)N[C@@H]2CNCC[C@H]2c2ccc(F)c(F)c2)c1 [Compound 42, 4-(4-bromo-1-methyl-1H-pyrazol-5-yl)-N-((3S,4S)-4-(3,4-difluorophenyl)piperidin-3-yl)thiophene-2-formamide]
[1]
  IC50: 0.092 µM
[2]
  IC50: 9.71 µM
[3]
  IC50: 8.11 µM

## Cn1ncc(Cl)c1-c1cc(C(=O)N[C@@H]2CNC(CC(=O)O)C[C@H]2c2ccc(Cl)c(Cl)c2)oc1Cl (stereo partly drawn) [Compound 116, 2-((4S,5S)-5-(5-chloro-4-(4-chloro-1-methyl-1H-pyrazol-5-yl)furan-2-formamide)-4-(3,4-dichlorophenyl)piperidin-2-yl)acetic acid]
[1]
  IC50: 0.001 µM
[2]
  IC50: 3.68 µM
[3]
  IC50: 5.01 µM

## Cn1ncc(Br)c1-c1ccc(C(=O)N[C@@H]2CNCC[C@H]2c2cccc(F)c2)s1 [Compound 147, 5-(4-bromo-1-methyl-1H-pyrazol-5-yl)-N-((3S,4S)-4-(3-fluorophenyl)piperidin-3-yl)thiophene-2-formamide]
[1]
  IC50: 0.009 µM
[2]
  IC50: 2.43 µM
[3]
  IC50: 0.36 µM

## Cc1cc(C(=O)N[C@@H]2CNC(CCN3CCCCC3)C[C@H]2c2ccc(F)c(F)c2)ccc1-c1c(Cl)cnn1C (stereo partly drawn) [Compound 102, 4-(4-chloro-1-methyl-1H-pyrazol-5-yl)-N-((3S,4S)-4-(3,4-difluorophenyl)-6-(2-(piperidin-1-yl)ethyl)piperidin-3-yl)-3-methylbenzamide]
[1]
  IC50: 0.008 µM
[2]
  IC50: 0.34 µM
[3]
  IC50: 0.8 µM

## Cn1ncc(Cl)c1-c1cc(C(=O)N[C@@H]2CNC(CCN3CCOCC3)C[C@H]2c2ccc(Cl)c(Cl)c2)oc1Cl (stereo partly drawn) [Compound 109, 5-chloro-4-(4-chloro-1-methyl-1H-pyrazol-5-yl)-N-((3S,4S)-4-(3,4-dichlorophenyl)-6-(2-(morpholin-1-yl)ethyl)piperidin-3-yl)furan-2-formamide]
[1]
  IC50: 0.009 µM
[2]
  IC50: 1.3 µM
[3]
  IC50: 0.78 µM

## Cn1ncc(Cl)c1-c1cc(C(=O)N[C@@H]2CNC(CC(O)CO)C[C@H]2c2ccc(Cl)c(Cl)c2)oc1Cl (stereo partly drawn) [Compound 112, 5-chloro-4-(4-chloro-1-methyl-1H-pyrazol-5-yl)-N-((3S,4S)-4-(3,4-dichlorophenyl)-6-(2,3-dihydroxypropyl)piperidin-3-yl)furan-2-formamide]
[1]
  IC50: 0.002 µM
[2]
  IC50: 0.33 µM
[3]
  IC50: 0.84 µM
